Laboratory results taken from patent publication US9051240B2, “Substituted 2-[2-(phenyl) ethylamino] alkaneamide derivatives and their use as sodium and/or calcium channel modulators” (Newron Pharmaceuticals S.P.A., priority 2007, dated 2015).
Like-named read-outs stand apart in the source and are kept apart here.

Assays:
[1] = biological target: Na+ currents in rat cortical neurons; assay: Patch clamp evaluation of Na+ currents blockade in rat cortical neurons; assay type: cell-based; conditions: for Ki: calculated from Kr and Kdep, read-out: Ki (apparent affinity for the inactivated state)
Method: Cortical neurons were prepared from embryonic Wistar rats (E17-E19). A female rat at date 17-19 of pregnancy was anesthetized and sacrificed. The fetuses (n=4-5) were dissected and placed in ice-cold Hank's solution (Hank's solution (Life tech.14170-088)+glucose 30%+Pen-Strep 100× (Life Tech. 15140-122) 100U-100 μg/ml and Hepes-NaOH 5 mM). The uterus and placenta were removed, the fetuses were decapitated and the heads were placed in ice-cold Hank's solution. Cells were counted and diluted in Neurobasal medium to a concentration of 400000 cells per poly-D-lysine 5 μg/ml treated Petri dish. Cortical neurons were used from day 6th till day 11th after plating, and once a week Neurobasal medium was changed. Experiments on cortical neurons were carried out using standard whole cell patch clamp methods (Hamill et al., Pfugers Arch., 1981 August, 391(12), 85-100). Membrane currents were recorded and filtered at 5 kHz with an Axon Axopatch 200B amplifier and data digitized with an Axon Digidata 1322A (Axon Instruments, CA, USA). Protocol playing and data acquisition were controlled online with Axon pClamp8 software. Measuring and reference electrodes were AgCl-Ag electrodes. A Sutter Instrument P-87 Puller (CA, USA) was used for pulling patch clamp pipettes with a resistance of 2-3 MΩ from Harward borosilicate glass tubes. Cells were continuously superfused with extracellular solutions, using a solution changer Biologic RSC-200. To test the effect of compounds on sodium currents in cortical neurons, cells were clamped at -90 mV, then a two step protocol was used to determine the voltage dependence of the block. […] Tonic block of resting and depolarized currents at a given drug concentration, was calculated as the difference between the peak Na^+ current in the control external bath solution and peak currents with the test substance divided by control peak. Drug concentration-inhibition curves were obtained by plotting tonic blocks in the resting and depolarized condition, versus drug concentrations. Dose-response curves were fitted to the tonic block data, according to the logistic equation: […] Control bath solution contained (mM): […] Internal pipette solution consisted of (mM): […] Compounds were dissolved as stock solutions (20 mM) in DMSO. They were diluted to the final concentrations in the external solution.

MAO-B = MAO-B (Rattus norvegicus (Rat), UniProt P19643); assay: In vitro MAO-B enzyme activity assay (radioenzymatic, rat brain mitochondria); assay type: biochemical; conditions: 14C-PEA 0.5 μM
Sequence of MAO-B (P19643 whole entry): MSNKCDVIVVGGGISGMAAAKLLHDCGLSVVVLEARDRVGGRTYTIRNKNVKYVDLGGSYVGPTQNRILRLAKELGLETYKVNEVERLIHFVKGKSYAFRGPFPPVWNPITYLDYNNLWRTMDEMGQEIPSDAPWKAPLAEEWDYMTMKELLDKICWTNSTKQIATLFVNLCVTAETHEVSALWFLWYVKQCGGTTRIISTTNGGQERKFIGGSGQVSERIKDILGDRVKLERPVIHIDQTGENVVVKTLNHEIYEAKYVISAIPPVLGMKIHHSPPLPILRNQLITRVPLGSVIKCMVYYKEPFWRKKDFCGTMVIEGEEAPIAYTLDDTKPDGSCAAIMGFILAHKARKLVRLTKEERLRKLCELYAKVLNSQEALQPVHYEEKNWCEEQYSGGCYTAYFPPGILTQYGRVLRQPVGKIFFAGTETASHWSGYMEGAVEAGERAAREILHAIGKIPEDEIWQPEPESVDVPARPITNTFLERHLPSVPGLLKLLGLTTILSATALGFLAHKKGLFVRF
Method: Male Wistar rats (Harlan, Italy weighing 175-200 g) were sacrificed under light anaesthesia and brains were rapidly removed and homogenized in 8 volumes of ice-cold 0.32 M sucrose buffer containing 0.1 M EDTA, pH 7.4. The crude homogenate was centrifuged at 2220 rpm for 10 minutes and the supernatant recovered. The pellet was homogenized and centrifuged again. The two supernatants were pooled and centrifuged at 9250 rpm for 10 minutes at +4° C. The pellet was resuspended in fresh buffer and centrifuged at 11250 rpm for 10 minutes at +4° C. The resulting pellet was stored at −80° C. The enzyme activity was assessed with a radioenzymatic assay using the substrate ^14C-phenylethylamine (PEA) specific for MAO-B. The mitochondrial pellet (500 μg protein) was resuspended in 0.1 M phosphate buffer (pH 7.4). 200 μl of the suspension were added to a 50 μl solution of the test compound or buffer, and incubated for 30 min at 37° C. (preincubation) then the substrate (50 μl) was added. The incubation was carried out for 10 minutes at 37° C. (^14C-PEA, 0.5 μM). The reaction was stopped by adding 0.2 ml of perchloric acid. After centrifugation, the deaminated metabolites were extracted with 3 ml of toluene and the radioactive organic phase containing the neutral and/or acidic metabolites formed as a result of MAO-B activity was measured by liquid scintillation spectrometry at 90% efficiency. The MAO-B activity was expressed as nmoles of substrate transformed/mg protein/min.

mice [2] = assay: Formalin test; assay type: in vivo; conditions: Mus musculus, po
Method: According to a modified protocol from Rosland et al. (Rosland J. H., Tjolsen A., Maehle B., Hole K. Pain (1990) 42: 235-242), mice were injected subcutaneously (s.c.) with 20 μl of 2.7% solution of formalin into the plantar surface of left hindpaw and placed immediately into clear PVC observation chambers (23×12×13 cm). Pain behaviour was quantified by counting the cumulative licking time (s) of the injected paw. Measurements were taken during the early phase (0-5 min) and late phase (20-40 min) after formalin injection (Tjolsen A., Berge O. G., Hunskaar S., Rosland J. H., Hole K. Pain (1992) 51: 5-17).
The test compound was administered p.o. or s.c. 5-45 minutes before formalin injection in a volume of 10 ml/kg body weight to groups of 10 mice per dose. Control group was treated with vehicle.

mice [3] = assay: Maximal electroshock test (MES) in mice; assay type: in vivo; conditions: for ED50: Mus musculus
Description: The maximal electroshock test (MES) is used commonly in the screening of anti-epileptic drugs in rodent models.
Animals and Apparatus: Male CD1 mice weighing 25 g were used. The procedure described by White et al. (White H. S., Woodhead J. H., Franklin M. R., Swinyard E. A., and Wolf H. H. Antiepileptic Drugs (1995) 4th ed: 99-110, Raven Press, Ltd., New York) was followed. An Ugo Basile electroconvulsive generator (Model ECT UNIT 7801) was used to deliver an electrical stimulus sufficient to produce a hindlimb tonic extensor response in at least 97% of control animals. The stimulus was delivered intra-aurally through clip electrodes in mice (0.7 s of a 40 mA shock, with a pulse train of 80 Hz having a pulse duration of 0.4 ms). The acute effect of compounds administered intraperitoneally (i.p.), subcutaneously (s.c.), intravenously (i.v.) or orally (p.o.) 5-120 minutes before MES induction were examined and compared with a vehicle control group. Ten mice were studied per group. Complete suppression of the hindlimb tonic extensor component of seizures was taken as evidence of anticonvulsant activity.
The compounds of the invention were administered p.o. or i.v., at the doses of 0.1-100 mg/kg.

[4] = preconditioning potential -110 mV, read-out: IC50 resting (Kr)
[5] = preconditioning potential ~-50 mV, read-out: IC50 depolarized

Row | Compound | Ki [1] [µM] | IC50 [1, 4] [µM] | IC50 [1, 5] [µM] | IC50 (MAO-B) [µM] | ED50 (mice [2]) [mg/kg] | ED50 (mice [3]; iv, mice, MES, i.v., read-out: MES ED50 mg/kg i.v.) [mg/kg] | ED50 (mice [3]; po, mice, MES, p.o., read-out: ED50 (mg/kg p.o.)) [mg/kg] | % protection 10 mg/kg p.o. (mice [3]; mice, MES, 10 mg/kg p.o.) [%] | IC50 ([1]; resting condition, figure in parentheses after >100, read-out: IC50 resting (Kr), value in parentheses) [µM] | ED50 (mice [3]; iv, read-out: MES ED50 mg/kg i.v.) [mg/kg]
1 | CCCCOc1cccc(CCNCC(=O)N(C)C)c1.Cl [2-[2-(3-Butoxyphenyl)-ethylamino]-N,N-dimethylacetamide hydrochloride] | 0.4 | 25 | 0.8 | 231 | 14.9 | 0.2 | 4.3 | 100 |  | 
2 | C[C@H](NCc1ccc(OCc2ccccc2F)cc1)C(N)=O [ralfinamide, (S)-(+)-2-[4-(2-fluorobenzyloxy)-benzylamino]-propanamide, reference compound] | 4.7 | > 100 | 9 | 0.2 | 29.3 |  |  |  | 213 | 2.7
